We go through two compounds from ChEMBL document CHEMBL1152070, “-cyano-substituted analogoues of decarboxylated S-adenosylmethionine as enzyme activated, irreversible inhibitors of S-adenosylmethionine decarboxylase” (Bioorg Med Chem Lett, 1993).

Structures are written as SMILES.

Experiment [1] deals with T1, S-adenosylmethionine decarboxylase proenzyme (Homo sapiens, UniProt P17707).
T1 sequence (P17707 whole entry): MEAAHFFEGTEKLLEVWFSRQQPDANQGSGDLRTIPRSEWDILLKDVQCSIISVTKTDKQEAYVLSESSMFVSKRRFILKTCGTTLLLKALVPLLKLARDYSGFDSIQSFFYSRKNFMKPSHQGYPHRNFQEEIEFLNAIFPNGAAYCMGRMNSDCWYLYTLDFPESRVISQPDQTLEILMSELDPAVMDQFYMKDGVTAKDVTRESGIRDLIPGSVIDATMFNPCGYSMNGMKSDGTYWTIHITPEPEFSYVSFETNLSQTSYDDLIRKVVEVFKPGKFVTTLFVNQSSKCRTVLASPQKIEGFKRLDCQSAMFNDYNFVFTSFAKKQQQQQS
The experiment can be described thus: Compound was evaluated to inactivate the human AdoMet-DC.

Experiment [2] concerns the target T2, S-adenosylmethionine decarboxylase proenzyme (Homo sapiens) (UniProt P17707).
T2 sequence (whole entry): T1 sequence (P17707 whole entry)
The experiment can be described thus: Compound was evaluated for Enzyme kinetic inactivation constant: Kinact for S-Adenosyl-methionine decarboxylase (AdoMet-DC) enzyme.

As to `C[S+](CCCC(N)C#N)C[C@H]1O[C@@H](n2cnc3c(N)ncnc32)[C@H](O)[C@@H]1O` (stereo not given in full), in experiment [1], the Ki came out at 7.2 µM. In experiment [2], this compound yielded a K inact of 0.03 min⁻¹.

`C[S+](CCC(N)C#N)C[C@H]1O[C@@H](n2cnc3c(N)ncnc32)[C@H](O)[C@@H]1O` (stereo not given in full) displayed a Ki in experiment [1] of 247 µM. Besides, the K inact amounted to 0.29 min⁻¹ in experiment [2] and 0.06 min⁻¹ in experiment [2] (Escherichia coli).
